In ChEMBL document CHEMBL1201862, “PubChem BioAssay data set” (2004):
The source made the active and inactive calls.

Columns and labels:
Trypsin = Trypsin (Sus scrofa, UniProt P00761); assay: porcine trypsin inhibitors, dose response, selectivity assay for Rce1 protease inhibitor project, biochemical, quenched peptide fluorescence, cherry-pick (AID 488789)
CAAX prenyl protease 1 = CAAX prenyl protease 1 (Saccharomyces cerevisiae S288c, UniProt P47154); assay: Ste24 protease inhibitors, dose response, biochemical, S. cerevisiae, plate reader, cherry-pick (AID 488815)
Estrogen receptor = target: T1, Estrogen receptor (Homo sapiens, UniProt P03372);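 note: potency for inhibiting coactivator peptide recruitment to the receptor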
T1 sequence (P03372 whole entry): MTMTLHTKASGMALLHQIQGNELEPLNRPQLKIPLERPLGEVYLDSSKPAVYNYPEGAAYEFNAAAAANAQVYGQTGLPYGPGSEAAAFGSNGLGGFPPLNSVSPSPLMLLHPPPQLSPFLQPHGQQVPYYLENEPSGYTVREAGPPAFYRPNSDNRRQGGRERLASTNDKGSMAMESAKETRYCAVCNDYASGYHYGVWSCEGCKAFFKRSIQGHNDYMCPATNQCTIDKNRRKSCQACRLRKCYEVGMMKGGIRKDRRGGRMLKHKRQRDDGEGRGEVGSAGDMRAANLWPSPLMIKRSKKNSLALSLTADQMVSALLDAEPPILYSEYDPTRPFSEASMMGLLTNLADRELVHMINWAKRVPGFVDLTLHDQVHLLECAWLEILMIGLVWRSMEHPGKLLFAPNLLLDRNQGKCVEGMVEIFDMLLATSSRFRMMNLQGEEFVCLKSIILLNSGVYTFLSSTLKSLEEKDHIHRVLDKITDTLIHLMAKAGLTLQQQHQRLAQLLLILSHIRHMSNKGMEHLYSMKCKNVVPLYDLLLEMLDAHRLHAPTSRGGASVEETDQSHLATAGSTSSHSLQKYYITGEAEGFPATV

Mu-type opioid receptor [1] = target: T2, Mu-type opioid receptor (Homo sapiens, UniProt P35372); assay: SAR Analysis of Agonists of the MOR Receptor using an Image-Based Assay - Set 2. [Related pubchem assays (depositor defined):AID1777, AID1785, AID1786, AID1966, AID2133, AID2136, AID2284, AID2285, AID2352]; format: functional
T2 sequence (P35372 whole entry): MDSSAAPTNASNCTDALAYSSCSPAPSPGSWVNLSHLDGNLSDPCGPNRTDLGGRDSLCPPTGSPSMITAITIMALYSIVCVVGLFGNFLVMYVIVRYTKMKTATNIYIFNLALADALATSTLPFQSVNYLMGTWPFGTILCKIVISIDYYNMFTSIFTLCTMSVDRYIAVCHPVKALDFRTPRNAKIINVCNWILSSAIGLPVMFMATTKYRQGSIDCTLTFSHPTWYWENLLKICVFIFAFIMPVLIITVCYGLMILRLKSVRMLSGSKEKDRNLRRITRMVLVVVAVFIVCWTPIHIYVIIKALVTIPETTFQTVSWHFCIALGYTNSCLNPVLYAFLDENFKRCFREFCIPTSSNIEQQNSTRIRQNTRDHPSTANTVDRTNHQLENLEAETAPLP

[2] = target: T3, Kappa-type opioid receptor (Homo sapiens, UniProt P41145); assay: SAR analysis of Agonists of the Kappa Opioid Receptor (KOR) using an Image-Based Assay - Set 2. [Related pubchem assays (depositor defined):AID1777, AID1786, AID1966, AID2133, AID2136, AID2284, AID2285, AID2359]; format: functional
T3 sequence (P41145 whole entry): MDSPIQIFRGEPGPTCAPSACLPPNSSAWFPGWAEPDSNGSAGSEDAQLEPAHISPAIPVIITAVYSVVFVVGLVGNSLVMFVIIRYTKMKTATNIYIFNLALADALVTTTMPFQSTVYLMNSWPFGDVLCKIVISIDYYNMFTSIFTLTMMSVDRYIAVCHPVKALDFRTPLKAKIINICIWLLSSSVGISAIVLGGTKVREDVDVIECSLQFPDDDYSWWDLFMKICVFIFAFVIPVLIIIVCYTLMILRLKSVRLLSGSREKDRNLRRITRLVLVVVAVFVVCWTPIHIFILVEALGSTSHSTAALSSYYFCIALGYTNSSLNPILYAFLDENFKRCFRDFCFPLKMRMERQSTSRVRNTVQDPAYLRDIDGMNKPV

Mu-type opioid receptor [3] = target: T2, Mu-type opioid receptor; assay: SAR Analysis of Antagonists of the MOR Receptor using an Image-Based Assay - Set 2. [Related pubchem assays (depositor defined):AID1777, AID1785, AID1786, AID1966, AID2133, AID2136, AID2284, AID2285, AID2420]; format: functional
[4] = target: T4, Delta-type opioid receptor (Homo sapiens, UniProt P41143); assay: SAR Analysis of Agonists of the DOR Receptor using an Image-Based Assay - Set 2. [Related pubchem assays (depositor defined):AID1777, AID1785, AID1786, AID1966, AID2133, AID2136, AID2284, AID2285, AID2370]; format: functional
T4 sequence (P41143 whole entry): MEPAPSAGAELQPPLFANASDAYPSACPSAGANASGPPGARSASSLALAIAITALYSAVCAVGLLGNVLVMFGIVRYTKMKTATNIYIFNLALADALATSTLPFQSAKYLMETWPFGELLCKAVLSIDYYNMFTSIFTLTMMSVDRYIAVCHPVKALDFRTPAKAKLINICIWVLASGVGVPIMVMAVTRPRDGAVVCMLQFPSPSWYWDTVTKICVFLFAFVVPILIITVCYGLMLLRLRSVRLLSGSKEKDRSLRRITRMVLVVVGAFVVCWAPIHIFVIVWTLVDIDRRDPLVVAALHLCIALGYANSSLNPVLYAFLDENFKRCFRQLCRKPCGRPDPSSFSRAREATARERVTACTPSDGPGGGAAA

[5] = target: T3, Kappa-type opioid receptor; assay: SAR analysis of small molecule agonists of the kappa opioid receptor via a luminescent beta-arrestin assay - Set 2. [Related pubchem assays (depositor defined):AID1777, AID1785, AID1786, AID1966, AID2133, AID2136, AID2284, AID449737]; format: functional
[6] = target: T3, Kappa-type opioid receptor; assay: SAR analysis of Antagonists of the Kappa Opioid Receptor (KOR) using an Image-Based Assay - Set 2. [Related pubchem assays (depositor defined):AID1777, AID1785, AID1786, AID1966, AID2133, AID2136, AID2284, AID2285, AID2348]; format: functional
[7] = target: T4, Delta-type opioid receptor; assay: SAR Analysis of Antagonists of the DOR Receptor using an Image-Based Assay - Set 2. [Related pubchem assays (depositor defined):AID1777, AID1785, AID1786, AID1966, AID2133, AID2136, AID2284, AID2285, AID2357]; format: functional
Cytochrome P450 1A2 = target: T5, Cytochrome P450 1A2 (Homo sapiens, UniProt P05177);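 note: PubChem cytochrome P450 panel assay, CYP1A2 panel member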
T5 sequence (P05177 whole entry): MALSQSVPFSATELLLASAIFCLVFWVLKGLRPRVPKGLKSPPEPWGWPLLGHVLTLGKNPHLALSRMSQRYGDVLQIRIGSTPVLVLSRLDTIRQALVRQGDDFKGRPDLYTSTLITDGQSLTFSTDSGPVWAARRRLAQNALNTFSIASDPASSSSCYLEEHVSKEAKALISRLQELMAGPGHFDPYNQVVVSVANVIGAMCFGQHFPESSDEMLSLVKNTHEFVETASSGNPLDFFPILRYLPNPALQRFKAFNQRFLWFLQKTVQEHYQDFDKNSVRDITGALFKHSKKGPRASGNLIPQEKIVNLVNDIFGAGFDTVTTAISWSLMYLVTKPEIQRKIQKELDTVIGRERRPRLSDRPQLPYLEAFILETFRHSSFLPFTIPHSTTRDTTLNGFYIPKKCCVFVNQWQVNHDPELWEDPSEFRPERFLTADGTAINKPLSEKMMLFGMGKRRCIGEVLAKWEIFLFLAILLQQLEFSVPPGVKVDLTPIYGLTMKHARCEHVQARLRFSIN

[8] = target: T6, Alkaline phosphatase, tissue-nonspecific isozyme (Homo sapiens, UniProt P05186); assay: TNAP enzyme inhibition by screening hits, dose response, selectivity assay for mouse IAP inhibitor project, biochemical, human TNAP, uHTS hits (AID 488906); format: functional
T6 sequence (P05186 whole entry): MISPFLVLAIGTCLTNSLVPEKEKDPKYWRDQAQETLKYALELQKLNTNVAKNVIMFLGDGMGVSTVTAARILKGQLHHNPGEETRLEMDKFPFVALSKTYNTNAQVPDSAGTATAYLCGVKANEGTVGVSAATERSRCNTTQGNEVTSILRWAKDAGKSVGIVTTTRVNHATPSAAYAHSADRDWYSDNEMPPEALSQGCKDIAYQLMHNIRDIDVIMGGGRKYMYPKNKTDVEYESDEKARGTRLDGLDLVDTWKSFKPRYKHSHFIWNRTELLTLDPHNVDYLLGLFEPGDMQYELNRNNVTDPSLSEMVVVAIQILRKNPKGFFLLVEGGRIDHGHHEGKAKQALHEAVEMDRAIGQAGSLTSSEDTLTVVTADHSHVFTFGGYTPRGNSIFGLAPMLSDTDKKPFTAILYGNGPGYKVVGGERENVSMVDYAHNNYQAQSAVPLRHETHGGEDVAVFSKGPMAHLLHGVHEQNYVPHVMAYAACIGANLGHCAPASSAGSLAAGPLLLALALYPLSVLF

Large T antigen = Large T antigen (Simian virus 40, UniProt P03070); format: functional, Betapolyomavirus macacae;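 note: Confirmatory-stage PubChem screen for compounds that inhibit SV40 T antigen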
Sequence of Large T antigen (P03070 whole entry): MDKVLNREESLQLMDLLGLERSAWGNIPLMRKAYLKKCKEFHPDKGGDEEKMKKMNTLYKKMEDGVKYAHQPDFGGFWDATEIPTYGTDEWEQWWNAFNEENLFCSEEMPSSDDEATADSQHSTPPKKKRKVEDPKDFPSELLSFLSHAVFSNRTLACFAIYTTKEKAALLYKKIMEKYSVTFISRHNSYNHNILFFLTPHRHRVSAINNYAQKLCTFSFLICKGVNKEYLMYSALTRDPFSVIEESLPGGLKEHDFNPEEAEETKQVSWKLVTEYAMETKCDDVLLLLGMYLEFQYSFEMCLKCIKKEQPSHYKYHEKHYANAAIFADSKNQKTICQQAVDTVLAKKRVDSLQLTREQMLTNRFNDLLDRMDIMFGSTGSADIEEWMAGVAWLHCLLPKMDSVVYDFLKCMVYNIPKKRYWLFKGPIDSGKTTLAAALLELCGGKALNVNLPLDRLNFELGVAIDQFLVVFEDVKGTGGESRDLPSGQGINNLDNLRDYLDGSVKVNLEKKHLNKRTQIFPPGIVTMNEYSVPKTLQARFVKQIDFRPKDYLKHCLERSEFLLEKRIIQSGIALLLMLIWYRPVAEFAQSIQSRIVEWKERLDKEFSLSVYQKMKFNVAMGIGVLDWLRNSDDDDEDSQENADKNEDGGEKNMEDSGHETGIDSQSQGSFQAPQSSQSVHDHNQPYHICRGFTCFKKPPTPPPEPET

[9] = cytotoxicity in MIN6 insulinoma cells, dose response, cytotoxicity control, cell-based, mouse insulinoma (AID 2122); format: functional;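 note: confirmatory high-throughput counterscreen run to flag cytotoxic compounds; mouse MIN-6 beta cells carrying an insulin promoter eGFP reporter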
[10] = target: T7, Rac GTPase-activating protein 1 (Homo sapiens, UniProt Q9H0H5); assay: MgcRacGAP GTPase-activating activity inhibitors, confirmation, biochemical, ADP Hunter fluorescence, primary and confirmatory (AID 624330); format: functional
T7 sequence (Q9H0H5 whole entry): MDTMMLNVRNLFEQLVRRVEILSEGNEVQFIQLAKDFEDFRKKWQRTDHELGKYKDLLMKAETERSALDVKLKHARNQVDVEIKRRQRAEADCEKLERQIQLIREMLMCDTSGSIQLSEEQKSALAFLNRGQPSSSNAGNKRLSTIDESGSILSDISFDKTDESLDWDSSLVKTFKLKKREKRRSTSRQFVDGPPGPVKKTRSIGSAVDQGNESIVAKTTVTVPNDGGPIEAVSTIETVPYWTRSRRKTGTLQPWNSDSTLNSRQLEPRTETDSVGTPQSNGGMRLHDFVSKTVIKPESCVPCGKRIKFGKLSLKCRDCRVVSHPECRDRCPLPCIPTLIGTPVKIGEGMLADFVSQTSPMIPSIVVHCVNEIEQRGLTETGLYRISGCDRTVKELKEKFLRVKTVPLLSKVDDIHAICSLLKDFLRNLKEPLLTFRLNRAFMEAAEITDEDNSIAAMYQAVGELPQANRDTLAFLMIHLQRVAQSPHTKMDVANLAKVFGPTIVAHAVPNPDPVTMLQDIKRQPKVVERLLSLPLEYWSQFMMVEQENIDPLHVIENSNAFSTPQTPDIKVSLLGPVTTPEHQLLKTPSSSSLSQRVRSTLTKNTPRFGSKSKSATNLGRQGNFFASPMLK

[11] = insulin promoter down-regulators in MIN6 cells, imaging, high-content screening, mouse beta cells (AID 1628); format: functional
[12] = THP-1 cell cytotoxicity, dose response, cytotoxicity control for Vif-APOBEC3G degradation inhibitor project, THP-1 cells (AID 1117359); format: functional; conditions: Human immunodeficiency virus 1, THP-1
[13] = target: Intestinal-type alkaline phosphatase (Homo sapiens, UniProt P09923); assay: inhibition of human intestinal alkaline phosphatase – biochemical, dose response (AID 488876); format: functional
[14] = target: Intestinal-type alkaline phosphatase (Mus musculus, UniProt P24822); assay: PubChem AID 488785; format: functional
Protein Tat = Protein Tat (Human immunodeficiency virus type 1 group M subtype B (isolate HXB2)(HIV-1), UniProt P04608); format: functional;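 note: tat binding to TAR RNA read out by fluorescence polarization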
H4 = assay: Luminescence Cell-Based Dose Response HTS to Identify Activators of 5'UTR Stem-Loop Driven Prion Protein mRNA Translation in H4 Neuroglioblastoma Cells. [Related pubchem assays: 1829 (Project Summary), 1814 (Primary HTS)]; format: functional; conditions: Homo sapiens
[15] = target: Voltage-dependent T-type calcium channel subunit alpha-1H (Homo sapiens, UniProt O95180); assay: Cav3.2 T-type channel blockers, cell-based, SynthLib3 library, HEK293 Cav3.2, fluorescence (AID 493041); format: functional
[16] = cytotoxicity toward DRD oncogenic fibroblasts, dose response, cell-based, non-viral oncogenic, luminescence (AID 1934); format: functional; conditions: Homo sapiens
Exodeoxyribonuclease V = Exodeoxyribonuclease V (Escherichia coli (strain K12), UniProt P04993+P07648+P08394); assay: E. coli RecBCD inhibitors, dose response, counter-screen for AddAB inhibitor project, absorbance, V66 E. coli, mutant T4 phage (AID 492957); format: functional, cell-based, Escherichia coli str. K-12 substr. MG1655
Sequence of Exodeoxyribonuclease V (P04993 whole entry): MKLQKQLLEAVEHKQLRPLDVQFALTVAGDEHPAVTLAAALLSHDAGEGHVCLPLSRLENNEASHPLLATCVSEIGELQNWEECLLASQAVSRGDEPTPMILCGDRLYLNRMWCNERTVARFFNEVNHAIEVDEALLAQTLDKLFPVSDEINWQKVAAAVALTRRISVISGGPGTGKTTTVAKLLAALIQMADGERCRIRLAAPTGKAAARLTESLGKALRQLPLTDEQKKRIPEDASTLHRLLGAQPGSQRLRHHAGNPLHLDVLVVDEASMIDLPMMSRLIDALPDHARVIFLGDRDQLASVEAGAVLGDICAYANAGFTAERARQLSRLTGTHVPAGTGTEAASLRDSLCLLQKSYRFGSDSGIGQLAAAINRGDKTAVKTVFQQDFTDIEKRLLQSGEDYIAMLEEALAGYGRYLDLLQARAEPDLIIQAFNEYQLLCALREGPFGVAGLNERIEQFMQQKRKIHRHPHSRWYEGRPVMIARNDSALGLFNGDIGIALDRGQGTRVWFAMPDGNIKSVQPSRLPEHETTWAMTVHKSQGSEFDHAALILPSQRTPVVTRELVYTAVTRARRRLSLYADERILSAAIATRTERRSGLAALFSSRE
Sequence of Exodeoxyribonuclease V (P07648 whole entry): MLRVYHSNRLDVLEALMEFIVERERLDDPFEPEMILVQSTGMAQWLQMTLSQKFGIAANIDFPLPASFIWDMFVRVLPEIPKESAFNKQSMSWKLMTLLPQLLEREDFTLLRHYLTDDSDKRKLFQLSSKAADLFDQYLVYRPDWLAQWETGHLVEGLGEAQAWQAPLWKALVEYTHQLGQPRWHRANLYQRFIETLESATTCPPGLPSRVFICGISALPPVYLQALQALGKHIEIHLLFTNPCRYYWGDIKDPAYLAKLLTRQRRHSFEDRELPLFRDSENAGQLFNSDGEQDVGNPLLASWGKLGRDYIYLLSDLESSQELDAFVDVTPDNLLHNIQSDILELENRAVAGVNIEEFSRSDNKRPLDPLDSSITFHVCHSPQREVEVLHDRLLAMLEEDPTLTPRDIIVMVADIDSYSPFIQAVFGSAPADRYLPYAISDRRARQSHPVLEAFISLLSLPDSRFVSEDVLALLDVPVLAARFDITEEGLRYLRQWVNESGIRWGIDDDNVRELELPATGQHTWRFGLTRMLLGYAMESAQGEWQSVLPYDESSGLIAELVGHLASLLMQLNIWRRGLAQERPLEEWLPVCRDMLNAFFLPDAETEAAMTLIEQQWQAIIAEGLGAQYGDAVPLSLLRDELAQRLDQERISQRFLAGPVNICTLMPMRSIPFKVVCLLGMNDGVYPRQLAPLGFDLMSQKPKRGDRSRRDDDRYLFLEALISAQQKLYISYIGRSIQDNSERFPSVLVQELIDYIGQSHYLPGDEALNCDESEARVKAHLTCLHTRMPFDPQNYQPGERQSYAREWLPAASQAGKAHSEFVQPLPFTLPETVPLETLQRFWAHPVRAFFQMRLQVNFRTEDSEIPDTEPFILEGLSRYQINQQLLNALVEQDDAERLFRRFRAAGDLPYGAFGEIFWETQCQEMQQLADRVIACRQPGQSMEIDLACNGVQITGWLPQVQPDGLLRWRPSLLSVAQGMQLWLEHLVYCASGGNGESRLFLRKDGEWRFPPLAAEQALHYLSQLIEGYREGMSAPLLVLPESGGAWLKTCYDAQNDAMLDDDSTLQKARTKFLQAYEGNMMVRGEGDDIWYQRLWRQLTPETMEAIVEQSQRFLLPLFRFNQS
Sequence of Exodeoxyribonuclease V (P08394 whole entry): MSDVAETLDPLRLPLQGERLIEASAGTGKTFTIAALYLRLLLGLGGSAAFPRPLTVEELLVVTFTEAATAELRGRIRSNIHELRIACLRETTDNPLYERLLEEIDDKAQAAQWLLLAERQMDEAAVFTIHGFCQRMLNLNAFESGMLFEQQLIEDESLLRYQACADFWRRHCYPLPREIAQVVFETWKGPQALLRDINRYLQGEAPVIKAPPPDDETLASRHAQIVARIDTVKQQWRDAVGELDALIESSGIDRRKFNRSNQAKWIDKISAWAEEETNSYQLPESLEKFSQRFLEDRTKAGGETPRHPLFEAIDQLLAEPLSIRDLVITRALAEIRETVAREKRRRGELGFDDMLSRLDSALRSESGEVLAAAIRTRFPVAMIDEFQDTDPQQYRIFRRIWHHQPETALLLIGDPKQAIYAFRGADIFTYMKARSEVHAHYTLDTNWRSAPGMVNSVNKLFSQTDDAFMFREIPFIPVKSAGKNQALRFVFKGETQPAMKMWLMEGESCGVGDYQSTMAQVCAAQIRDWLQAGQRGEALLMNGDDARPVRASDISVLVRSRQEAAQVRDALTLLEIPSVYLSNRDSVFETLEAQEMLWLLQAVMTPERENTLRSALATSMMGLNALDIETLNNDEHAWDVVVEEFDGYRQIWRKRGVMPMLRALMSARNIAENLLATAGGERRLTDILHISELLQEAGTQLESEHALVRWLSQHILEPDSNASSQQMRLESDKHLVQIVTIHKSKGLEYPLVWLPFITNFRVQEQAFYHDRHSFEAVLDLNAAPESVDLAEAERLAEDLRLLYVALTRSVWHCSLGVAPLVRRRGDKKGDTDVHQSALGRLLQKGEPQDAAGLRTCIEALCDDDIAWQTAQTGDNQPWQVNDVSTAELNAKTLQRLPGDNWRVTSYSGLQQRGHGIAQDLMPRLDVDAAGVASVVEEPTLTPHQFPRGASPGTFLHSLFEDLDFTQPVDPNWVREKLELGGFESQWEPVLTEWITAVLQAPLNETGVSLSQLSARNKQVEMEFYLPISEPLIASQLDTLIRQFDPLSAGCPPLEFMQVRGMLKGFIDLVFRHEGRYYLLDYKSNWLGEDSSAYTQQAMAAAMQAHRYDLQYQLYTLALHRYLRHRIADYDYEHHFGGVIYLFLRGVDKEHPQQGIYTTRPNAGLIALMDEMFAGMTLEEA

Vero = assay: cells; format: functional; conditions: Chlorocebus sabaeus
BJ [17] = assay: cytotoxicity toward BJ-TERT-LT-ST fibroblasts, dose response, cell-based, RAS-independent, luminescence (AID 1935); format: functional; conditions: Homo sapiens;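 note: BJ fibroblasts immortalized with TERT plus LT and ST oncogenes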
[18] = Counterscreen for AddAB inhibitors: absorbance-based bacterial cell-based high throughput dose response assay for inhibitors of bacterial viability. [Related pubchem assays (depositor defined):AID435030, AID449728, AID449731, AID488942, AID488955, AID488956]; format: functional
BJ [19] = assay: cytotoxicity toward BJ-TERT fibroblasts, dose response, cell-based, RAS-independent, luminescence (AID 1933); format: functional; conditions: Homo sapiens

Sequence of Trypsin (P00761 whole entry): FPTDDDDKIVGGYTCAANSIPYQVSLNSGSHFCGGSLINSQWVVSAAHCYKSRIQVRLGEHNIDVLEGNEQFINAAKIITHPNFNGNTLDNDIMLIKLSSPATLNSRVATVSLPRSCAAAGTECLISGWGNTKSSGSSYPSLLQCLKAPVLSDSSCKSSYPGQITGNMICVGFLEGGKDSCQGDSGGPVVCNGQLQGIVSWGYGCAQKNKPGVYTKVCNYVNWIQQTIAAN

O=C(CSc1n[nH]c(-c2ccc(S(=O)(=O)N3CCCCC3)cc2)n1)Nc1nccs1
AC50 (Trypsin): 21.3 µM (active) | AC50 (CAAX prenyl protease 1): 8.82 µM (active) | IC50 (Estrogen receptor): 47.2 µM (not active)

Brc1ccc(CSc2nnc(-c3ccccn3)n2Cc2cccs2)cc1
EC50 (Mu-type opioid receptor [1]): > 32 µM (inactive) | EC50 [2]: 1.1 µM (active) | IC50 (Mu-type opioid receptor [3]): > 32 µM (inactive) | EC50 [4]: > 32 µM (inactive) | EC50 [5]: 1.85 µM (active) | IC50 [6]: > 32 µM (inactive) | IC50 [7]: > 32 µM (inactive)

Nc1ncnc2c1ncn2[C@H]1O[C@@H](C(=O)OCCO)[C@@H](O)[C@H]1O
AC50 (Cytochrome P450 1A2): inconclusive

C/N=c1\scc(-c2ccco2)n1/N=C/c1ccc(O)c(O)c1
IC50 [8]: 29.7 µM (active) | IC50 (Large T antigen): 25.5 µM (active) | IC50 [9]: 3.56 µM (active) | IC50 [10]: 30.3 µM (active) | IC50 [11]: 6.81 µM (active) | CC50 [12]: 9.16 µM (active) | IC50 [13]: 13.4 µM (active) | IC50 [14]: 1.7 µM (active) | IC50 (Protein Tat): > 100 µM (active) | EC50 (H4): 70.2 µM (active)

CC(C)CCN1C[C@@H]2C(CNC(=O)c3cc(Cl)cc(Cl)c3)[C@@H]2C1 (stereo partly drawn)
EC50 [15]: 1.9 µM (active)

O=Nc1ccc(O)c2ncccc12
EC50 [16]: 8.56 µM (active) | IC50 (Exodeoxyribonuclease V): > 119 µM (inactive) | CC50 (Vero): 9.69 µM (active) | EC50 (BJ [17]): 8.73 µM (active) | IC50 [18]: 35.6 µM (inactive) | EC50 (BJ [19]): 12.9 µM (active)
